In US11629143B2, “HipK4 inhibitors and uses thereof” (Vibliome Therapeutics, LLC, priority 2020, dated 2023):

What was measured:
Experiment in all cases: Kinase panel (mobility shift)
Type in all cases: biochemical
EPH-A4 = EPH-A4 (Homo sapiens, UniProt P54764)
Outline: (§1)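 Tested at a single 5 um concentration within a 299-kinase panel, compounds were scored by electrophoretic mobility shift of a fluorescent substrate into product. Categories: A, 95% or greater; B, 90%-94%; C, 80%-89%.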

EPH-A5 = EPH-A5 (Homo sapiens, UniProt P54756); details: at 5 um
Outline: as §1

EPH-A8 = target: T1, EPH-A8 (Homo sapiens, UniProt P29322)
T1 sequence (P29322 28-1005): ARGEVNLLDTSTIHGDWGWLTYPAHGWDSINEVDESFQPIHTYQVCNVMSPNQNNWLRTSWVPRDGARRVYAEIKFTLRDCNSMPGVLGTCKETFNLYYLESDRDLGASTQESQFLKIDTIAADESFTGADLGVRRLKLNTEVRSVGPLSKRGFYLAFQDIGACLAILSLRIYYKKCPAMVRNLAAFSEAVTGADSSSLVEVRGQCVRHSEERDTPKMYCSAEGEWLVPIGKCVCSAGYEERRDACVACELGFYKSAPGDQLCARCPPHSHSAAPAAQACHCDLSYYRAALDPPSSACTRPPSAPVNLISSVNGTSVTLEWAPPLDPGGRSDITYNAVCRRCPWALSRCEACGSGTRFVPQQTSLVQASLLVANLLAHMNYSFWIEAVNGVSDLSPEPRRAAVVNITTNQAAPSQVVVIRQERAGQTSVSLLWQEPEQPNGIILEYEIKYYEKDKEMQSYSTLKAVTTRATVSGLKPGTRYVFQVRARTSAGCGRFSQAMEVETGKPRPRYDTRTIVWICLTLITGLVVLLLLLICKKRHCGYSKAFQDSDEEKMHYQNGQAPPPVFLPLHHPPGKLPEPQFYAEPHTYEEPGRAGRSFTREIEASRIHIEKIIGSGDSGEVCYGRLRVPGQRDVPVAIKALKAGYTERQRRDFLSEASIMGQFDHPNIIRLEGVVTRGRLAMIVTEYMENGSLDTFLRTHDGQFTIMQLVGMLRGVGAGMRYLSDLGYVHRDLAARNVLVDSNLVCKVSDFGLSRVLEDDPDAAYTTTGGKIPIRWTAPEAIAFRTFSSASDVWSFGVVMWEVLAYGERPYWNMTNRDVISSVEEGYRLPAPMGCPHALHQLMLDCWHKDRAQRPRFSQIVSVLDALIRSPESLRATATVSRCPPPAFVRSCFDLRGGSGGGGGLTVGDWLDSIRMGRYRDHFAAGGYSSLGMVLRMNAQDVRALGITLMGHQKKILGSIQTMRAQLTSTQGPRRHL
Outline: as §1

SRC = SRC (Homo sapiens, UniProt P12931)
Outline: as §1

TIE2 = TIE2 (Homo sapiens, UniProt Q02763)
Outline: as §1

TRKA = TRKA (Homo sapiens, UniProt P04629)
Outline: as §1

TYRO3 = target: T2, TYRO3 (Homo sapiens, UniProt Q06418)
T2 sequence (Q06418 41-890): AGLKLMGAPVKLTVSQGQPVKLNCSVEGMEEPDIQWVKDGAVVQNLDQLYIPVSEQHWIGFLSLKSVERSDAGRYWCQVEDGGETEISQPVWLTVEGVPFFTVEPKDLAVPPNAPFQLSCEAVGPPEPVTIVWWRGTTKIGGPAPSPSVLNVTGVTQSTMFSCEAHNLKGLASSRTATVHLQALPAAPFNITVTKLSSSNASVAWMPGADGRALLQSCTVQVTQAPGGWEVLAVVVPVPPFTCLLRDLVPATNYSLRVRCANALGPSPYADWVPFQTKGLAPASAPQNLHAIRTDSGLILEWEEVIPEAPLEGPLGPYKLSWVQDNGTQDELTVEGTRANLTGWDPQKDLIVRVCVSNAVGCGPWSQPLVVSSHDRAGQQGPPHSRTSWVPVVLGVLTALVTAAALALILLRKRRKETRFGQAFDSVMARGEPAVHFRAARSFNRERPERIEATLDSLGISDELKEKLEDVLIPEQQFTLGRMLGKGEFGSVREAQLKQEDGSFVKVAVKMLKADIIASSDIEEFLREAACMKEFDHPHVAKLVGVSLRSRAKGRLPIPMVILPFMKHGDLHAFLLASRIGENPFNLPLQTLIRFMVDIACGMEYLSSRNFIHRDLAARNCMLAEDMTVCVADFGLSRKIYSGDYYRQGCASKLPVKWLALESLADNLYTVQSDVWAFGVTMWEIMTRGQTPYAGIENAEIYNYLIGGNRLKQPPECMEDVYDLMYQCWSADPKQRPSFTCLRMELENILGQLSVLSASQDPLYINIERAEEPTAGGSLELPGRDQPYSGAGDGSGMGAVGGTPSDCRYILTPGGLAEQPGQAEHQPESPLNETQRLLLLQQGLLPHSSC
Outline: as §1

TRKA, sequence (P04629 33-796, species assumed): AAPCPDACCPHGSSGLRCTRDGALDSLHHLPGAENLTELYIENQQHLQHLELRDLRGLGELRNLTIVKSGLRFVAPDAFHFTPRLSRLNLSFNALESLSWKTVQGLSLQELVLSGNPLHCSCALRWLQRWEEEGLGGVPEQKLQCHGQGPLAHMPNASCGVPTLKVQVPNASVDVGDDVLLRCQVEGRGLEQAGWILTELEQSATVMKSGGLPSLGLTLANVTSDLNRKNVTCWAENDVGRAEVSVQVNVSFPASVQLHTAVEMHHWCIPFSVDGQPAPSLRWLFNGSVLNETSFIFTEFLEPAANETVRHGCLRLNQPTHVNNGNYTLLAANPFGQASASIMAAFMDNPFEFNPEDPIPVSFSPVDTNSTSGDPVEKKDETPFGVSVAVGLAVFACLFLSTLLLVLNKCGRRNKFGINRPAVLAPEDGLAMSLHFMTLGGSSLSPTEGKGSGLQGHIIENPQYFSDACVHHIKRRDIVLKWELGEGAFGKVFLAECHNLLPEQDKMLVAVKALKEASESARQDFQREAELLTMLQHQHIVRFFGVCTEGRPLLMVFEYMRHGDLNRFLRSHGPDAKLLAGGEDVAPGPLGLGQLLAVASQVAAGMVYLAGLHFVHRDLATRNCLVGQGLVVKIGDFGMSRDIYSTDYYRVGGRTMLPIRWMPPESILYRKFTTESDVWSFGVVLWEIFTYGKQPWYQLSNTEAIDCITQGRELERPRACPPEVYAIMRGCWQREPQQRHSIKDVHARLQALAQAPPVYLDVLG
SRC, sequence (P12931 whole entry, species assumed): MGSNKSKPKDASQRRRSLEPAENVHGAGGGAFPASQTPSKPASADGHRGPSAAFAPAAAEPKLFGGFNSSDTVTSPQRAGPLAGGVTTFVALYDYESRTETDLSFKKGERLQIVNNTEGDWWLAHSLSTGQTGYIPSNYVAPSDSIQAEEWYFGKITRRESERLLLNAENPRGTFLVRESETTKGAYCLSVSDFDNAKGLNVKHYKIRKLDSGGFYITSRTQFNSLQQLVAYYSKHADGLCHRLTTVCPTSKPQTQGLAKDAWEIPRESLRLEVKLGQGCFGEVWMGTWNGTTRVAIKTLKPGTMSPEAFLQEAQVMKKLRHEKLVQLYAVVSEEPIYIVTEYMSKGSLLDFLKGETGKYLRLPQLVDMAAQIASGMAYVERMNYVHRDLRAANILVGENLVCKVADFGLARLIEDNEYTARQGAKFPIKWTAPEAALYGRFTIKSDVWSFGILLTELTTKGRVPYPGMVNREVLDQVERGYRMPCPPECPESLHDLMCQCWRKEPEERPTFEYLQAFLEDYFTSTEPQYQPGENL
EPH-A5, sequence (P54756 25-1037, species assumed): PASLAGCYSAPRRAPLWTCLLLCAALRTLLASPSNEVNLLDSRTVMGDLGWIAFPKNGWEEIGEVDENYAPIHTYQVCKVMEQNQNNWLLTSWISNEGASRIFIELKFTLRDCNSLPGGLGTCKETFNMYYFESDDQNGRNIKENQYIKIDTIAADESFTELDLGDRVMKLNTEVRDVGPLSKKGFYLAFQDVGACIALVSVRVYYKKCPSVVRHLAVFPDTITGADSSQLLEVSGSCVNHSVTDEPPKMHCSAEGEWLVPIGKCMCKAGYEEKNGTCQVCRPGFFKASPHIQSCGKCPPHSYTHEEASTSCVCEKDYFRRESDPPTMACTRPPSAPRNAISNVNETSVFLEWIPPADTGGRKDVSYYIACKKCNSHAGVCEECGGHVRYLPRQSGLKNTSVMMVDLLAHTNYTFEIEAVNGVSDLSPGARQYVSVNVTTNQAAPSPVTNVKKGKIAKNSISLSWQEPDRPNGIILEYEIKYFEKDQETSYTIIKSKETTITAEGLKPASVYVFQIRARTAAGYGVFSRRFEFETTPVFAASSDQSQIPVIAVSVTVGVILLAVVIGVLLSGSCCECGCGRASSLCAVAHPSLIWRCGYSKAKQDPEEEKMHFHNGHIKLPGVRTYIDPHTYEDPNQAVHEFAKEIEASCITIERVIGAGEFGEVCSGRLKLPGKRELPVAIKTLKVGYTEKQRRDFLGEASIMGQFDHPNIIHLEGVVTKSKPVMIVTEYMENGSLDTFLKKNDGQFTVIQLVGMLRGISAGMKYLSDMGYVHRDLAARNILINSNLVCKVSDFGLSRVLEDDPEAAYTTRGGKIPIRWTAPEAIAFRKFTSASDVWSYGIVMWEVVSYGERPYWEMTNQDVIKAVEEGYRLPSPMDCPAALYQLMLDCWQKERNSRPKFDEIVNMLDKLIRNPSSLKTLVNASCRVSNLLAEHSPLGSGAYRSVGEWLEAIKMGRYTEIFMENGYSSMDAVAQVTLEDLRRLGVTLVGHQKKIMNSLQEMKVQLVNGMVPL
TIE2, sequence (Q02763 23-1124, species assumed): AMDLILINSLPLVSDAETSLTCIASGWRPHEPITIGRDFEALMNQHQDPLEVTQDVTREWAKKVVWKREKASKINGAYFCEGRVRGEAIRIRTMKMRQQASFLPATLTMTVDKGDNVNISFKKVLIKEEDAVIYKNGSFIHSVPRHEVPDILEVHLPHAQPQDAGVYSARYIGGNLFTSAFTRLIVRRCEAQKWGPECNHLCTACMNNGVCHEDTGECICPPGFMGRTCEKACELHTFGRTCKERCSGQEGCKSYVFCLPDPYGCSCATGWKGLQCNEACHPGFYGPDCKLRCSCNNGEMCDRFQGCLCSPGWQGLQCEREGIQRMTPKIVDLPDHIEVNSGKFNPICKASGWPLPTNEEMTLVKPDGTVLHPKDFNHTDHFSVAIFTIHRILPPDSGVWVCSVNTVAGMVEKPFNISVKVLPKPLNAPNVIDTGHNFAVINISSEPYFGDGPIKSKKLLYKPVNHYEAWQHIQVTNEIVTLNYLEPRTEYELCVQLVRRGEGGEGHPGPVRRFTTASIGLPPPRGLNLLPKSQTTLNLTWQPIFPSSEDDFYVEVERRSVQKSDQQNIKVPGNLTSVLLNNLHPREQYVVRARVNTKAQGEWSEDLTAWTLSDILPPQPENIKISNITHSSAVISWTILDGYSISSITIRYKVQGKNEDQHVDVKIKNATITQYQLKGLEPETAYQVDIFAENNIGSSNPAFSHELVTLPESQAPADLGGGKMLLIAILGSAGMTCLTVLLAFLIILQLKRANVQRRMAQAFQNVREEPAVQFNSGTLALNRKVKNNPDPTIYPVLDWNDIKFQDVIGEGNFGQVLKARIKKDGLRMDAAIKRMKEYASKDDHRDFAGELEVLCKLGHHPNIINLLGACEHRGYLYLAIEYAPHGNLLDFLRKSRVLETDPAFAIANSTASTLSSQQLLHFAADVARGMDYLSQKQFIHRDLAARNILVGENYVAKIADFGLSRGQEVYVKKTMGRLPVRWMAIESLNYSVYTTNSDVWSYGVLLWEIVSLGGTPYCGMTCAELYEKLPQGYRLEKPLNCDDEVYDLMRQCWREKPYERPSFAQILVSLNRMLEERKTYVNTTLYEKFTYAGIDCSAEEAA
EPH-A4, sequence (P54764 20-986, species assumed): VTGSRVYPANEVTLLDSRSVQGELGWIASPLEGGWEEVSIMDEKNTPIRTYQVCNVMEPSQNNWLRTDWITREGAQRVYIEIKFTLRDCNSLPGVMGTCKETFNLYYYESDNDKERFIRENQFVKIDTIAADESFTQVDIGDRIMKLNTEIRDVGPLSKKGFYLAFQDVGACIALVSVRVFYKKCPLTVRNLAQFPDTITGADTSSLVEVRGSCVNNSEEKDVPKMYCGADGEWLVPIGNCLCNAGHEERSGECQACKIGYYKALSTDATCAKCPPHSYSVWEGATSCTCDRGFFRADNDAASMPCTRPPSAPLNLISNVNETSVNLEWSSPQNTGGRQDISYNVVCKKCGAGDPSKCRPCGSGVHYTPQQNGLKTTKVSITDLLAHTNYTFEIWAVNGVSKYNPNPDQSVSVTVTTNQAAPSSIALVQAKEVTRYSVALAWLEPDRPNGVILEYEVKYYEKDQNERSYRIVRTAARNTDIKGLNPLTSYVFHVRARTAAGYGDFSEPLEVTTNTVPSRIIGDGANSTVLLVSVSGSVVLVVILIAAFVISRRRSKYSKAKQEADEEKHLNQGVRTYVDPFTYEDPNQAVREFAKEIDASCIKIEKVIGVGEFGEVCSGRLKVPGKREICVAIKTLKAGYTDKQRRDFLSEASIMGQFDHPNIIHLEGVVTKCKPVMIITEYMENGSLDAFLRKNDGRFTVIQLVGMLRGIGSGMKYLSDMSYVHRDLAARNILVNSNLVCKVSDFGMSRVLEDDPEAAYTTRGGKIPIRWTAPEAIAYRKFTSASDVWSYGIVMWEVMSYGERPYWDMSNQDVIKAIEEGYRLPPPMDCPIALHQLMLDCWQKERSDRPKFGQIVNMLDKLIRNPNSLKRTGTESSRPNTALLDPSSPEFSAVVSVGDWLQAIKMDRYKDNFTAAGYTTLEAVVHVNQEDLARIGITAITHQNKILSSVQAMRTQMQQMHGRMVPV

SMILES | inhibition at 5 µM (EPH-A4) | inhibition of kinase activity, EPH-A5 (EPH-A5) | inhibition at 5 µM (EPH-A8) | inhibition at 5 µM (SRC) | inhibition at 5 µM (TIE2) | inhibition at 5 µM (TRKA) | inhibition at 5 µM (TYRO3)
CNC(=O)c1cc(Oc2ccc(NC(=O)c3nc(OC)oc3-c3ccc(F)cc3)cc2F)ccn1 [Compound 15] | 50 to 79% | D (category D for 50-79) | 80 to 89% | < 50% | < 50% | 50 to 79% | 90 to 94%
CNC(=O)c1cc(Oc2ccc(NC(=O)c3nc(NC)sc3-c3ccc(F)cc3F)cc2F)ccn1 [Compound 21] | < 50% | D (category D for 50-79) | 50 to 79% | < 50% | 50 to 79% | 50 to 79% | < 50%
CNC(=O)c1cc(Oc2ccc(NC(=O)c3nc(OC)oc3-c3ccc(F)c(F)c3)cc2F)ccn1 [Compound 24] | < 50% | E (category E is less than 50%) | 50 to 79% | < 50% | < 50% | 50 to 79% | 50 to 79%
CSc1nc(C(=O)Nc2ccc(Oc3ccnc(C(=O)NC4CNC4)c3)c(F)c2)c(-c2ccc(F)s2)o1 [Compound 27] | < 50% | E (category E is less than 50%) | < 50% | < 50% | < 50% | < 50% | < 50%
CSc1nc(C(=O)Nc2ccc(Oc3ccnc(C(=O)NC4COC4)c3)c(F)c2)c(-c2ccc(F)s2)o1 [Compound 28] | < 50% | E (category E is less than 50%) | < 50% | < 50% | < 50% | < 50% | < 50%
CSc1nc(C(=O)Nc2ccc(Oc3ccnc(C(=O)NC4CNC4)c3)c(F)c2)c(-c2ccc(F)cc2)o1 [Compound 29] | 50 to 79% | E (category E is less than 50%) | 50 to 79% | < 50% | < 50% | < 50% | 50 to 79%
CSc1nc(C(=O)Nc2ccc(Oc3ccnc(C(=O)NC4COC4)c3)c(F)c2)c(-c2ccc(F)cc2)o1 [Compound 31] | < 50% | E (category E is less than 50%) | < 50% | < 50% | < 50% | < 50% | 50 to 79%
CNC(=O)c1cc(Oc2ccc(NC(=O)c3nc(OC4CC4)oc3-c3ccc(F)cc3)cc2F)ccn1 [Compound 32] | 50 to 79% | D (category D for 50-79) | 80 to 89% | 50 to 79% | 50 to 79% | 50 to 79% | 90 to 94%
[2H]C([2H])([2H])NC(=O)c1cc(Oc2ccc(NC(=O)c3nc(SC)oc3-c3ccc(F)c(F)c3)cc2F)ccn1 [Compound 33] | < 50% | E (category E is less than 50%) | < 50% | < 50% | < 50% | 50 to 79% | 50 to 79%
CNC(=O)c1cc(Oc2ccc(NC(=O)c3nc(SC(C)C)oc3-c3ccc(F)cc3)cc2F)ccn1 [Compound 34] | 90 to 94% | C (C=80%-89% at 5 um) | 80 to 89% | 80 to 89% | 80 to 89% | 80 to 89% | 80 to 89%
[2H]C([2H])([2H])NC(=O)c1cc(Oc2ccc(NC(=O)c3nc(SC)oc3-c3ccc(F)s3)cc2F)ccn1 [Compound 35] | < 50% | E (category E is less than 50%) | < 50% | < 50% | < 50% | < 50% | 50 to 79%

Next, values leading:

inhibition at 5 µM (EPH-A4) | inhibition of kinase activity, EPH-A5 (EPH-A5) | inhibition at 5 µM (EPH-A8) | inhibition at 5 µM (SRC) | inhibition at 5 µM (TIE2) | inhibition at 5 µM (TRKA) | inhibition at 5 µM (TYRO3) | SMILES
< 50% | E (category E is less than 50%) | < 50% | < 50% | < 50% | < 50% | < 50% | CNC(=O)c1cc(Oc2ccc(NC(=O)c3nc(SC)oc3-c3ccc(F)s3)cc2F)ccn1 [Compound 16]
< 50% | E (category E is less than 50%) | < 50% | < 50% | < 50% | 50 to 79% | < 50% | CNC(=O)c1cc(Oc2ccc(NC(=O)c3nc(NC)oc3-c3ccc(F)s3)cc2F)ccn1 [Compound 17]
50 to 79% | D (category D for 50-79) | 50 to 79% | < 50% | 50 to 79% | 50 to 79% | 50 to 79% | CNC(=O)c1cc(Oc2c(F)cc(NC(=O)c3nc(NC)sc3-c3ccc(F)cc3)cc2F)ccn1 [Compound 19]
50 to 79% | D (category D for 50-79) | 50 to 79% | < 50% | 50 to 79% | 80 to 89% | 80 to 89% | CNC(=O)c1cc(Oc2ccc(NC(=O)c3nc(NC)sc3-c3ccc(F)cc3C)cc2F)ccn1 [Compound 23]
< 50% | E (category E is less than 50%) | < 50% | < 50% | < 50% | < 50% | 50 to 79% | CNC(=O)c1cc(Oc2ccc(NC(=O)c3nc(OC)oc3-c3ccc(F)s3)cc2F)ccn1 [Compound 25]
80 to 89% | C (C=80%-89% at 5 um) | 80 to 89% | 50 to 79% | 80 to 89% | 80 to 89% | 90 to 94% | CNC(=O)c1cc(Oc2ccc(NC(=O)c3nc(C4CC4)oc3-c3ccc(F)cc3)cc2F)ccn1 [Compound 26]
90 to 94% | C (C=80%-89% at 5 um) | 90 to 94% | 50 to 79% | 80 to 89% | 90 to 94% | ≥ 95% | CNC(=O)c1cc(Oc2ccc(NC(=O)c3nc(COC)oc3-c3ccc(F)cc3)cc2F)ccn1 [Compound 30]
